Laboratory results: ChEMBL document CHEMBL4825686, “HTS-based discovery and optimization of novel positive allosteric modulators of the α7 nicotinic acetylcholine receptor” (Eur J Med Chem, 2021)
≈ marks a conversion by molar mass, not a printed value. Calls of active or inactive are those of the source. The calls are words filed in the database; no cut-off is given here.

Key:
[1] = Ratio of drug level in Wistar rat brain to plasma at 3 mg/kg, ip measured after 35 mins by HPLC-MS/MS analysis; format: ADME, organism-based; settings: read-out: BPR
[2] = molecular target: Voltage-gated inwardly rectifying potassium channel KCNH2 (Homo sapiens, UniProt Q12809); assay: Inhibition of human ERG channel expressed in CHO cells measured after 7 to 10 mins at -80 mV holding potential by whole cell patch clamp assay; format: cell-based
[3] = Efflux ratio of apparent permeability from basolateral to apical side over apical to basolateral side in vinblastine-treated human Caco-2 cells expressing P-glycoprotein at 10 uM incubated for 120 mins by HPLC analysis; format: ADME
[4] = molecular target: 5-hydroxytryptamine receptor 2B (Homo sapiens) (UniProt P41595); assay: Binding affinity to human recombinant 5-HT2B receptor assessed as displacement of radioligand at 10 uM by displacement binding assay
[5] = molecular target: Sigma non-opioid intracellular receptor 1 (Homo sapiens) (UniProt Q99720); assay: Binding affinity to human recombinant sigma-1 receptor assessed as displacement of radioligand at 10 uM by displacement binding assay
[6] = Mutagenicity in Escherichia coli WP2 uvrA in presence of rat liver S9 fraction by AMES test; format: toxicity, subcellular
[7] = molecular target: GABA-A receptor; alpha-5/beta-3/gamma-2 (Homo sapiens) (UniProt P18507+P28472+P31644); assay: Activation of human alpha5beta3gamma2 GABAA receptor expressed in HEK293 cells assessed as enhancement of GABA induced channel current response at 1 to 10 uM measured after 7 to 10 mins at -80 mV holding potential by whole-cell patch clamp assay; format: cell-based; settings: dose 1-10 µM, time 7-10 min
[8] = molecular target: Neuronal acetylcholine receptor; alpha3/beta4 (Homo sapiens) (UniProt P30926+P32297); assay: Agonist activity at alpha3beta4 nAChR (unknown origin) upto 30 uM by automated Q-patch clamp assay; settings: dose microM <=30
[9] = Kinetic solubility of compound; format: physicochemical; settings: read-out: Kinetic_solubility
[10] = Mutagenicity in Escherichia coli WP2 uvrA in absence of rat liver S9 fraction by AMES test; format: toxicity
[11] = Drug uptake in NMRI mouse brain at 0.1 mg/kg, ip measured after 1 hr by HPLC-MS/MS analysis; format: ADME, organism-based; settings: read-out: Ct
[12] = Apparent permeability across apical to basolateral side in vinblastine-treated human Caco-2 cells expressing P-glycoprotein at 10 uM incubated for 120 mins by HPLC analysis; format: ADME
[13] = Mutagenicity in Salmonella typhimurium TA1537 in presence of rat liver S9 fraction by AMES test; format: toxicity, subcellular; settings: salmonella enterica subsp. enterica serovar typhimurium
[14] = molecular target: T1, 5-hydroxytryptamine receptor 3A (Homo sapiens) (UniProt P46098); assay: Displacement of [3H]GR65630 from human 5-HT3 receptor expressed in HEK293 cells at 10 uM by displacement binding assay; format: cell-based
T1 sequence (whole entry): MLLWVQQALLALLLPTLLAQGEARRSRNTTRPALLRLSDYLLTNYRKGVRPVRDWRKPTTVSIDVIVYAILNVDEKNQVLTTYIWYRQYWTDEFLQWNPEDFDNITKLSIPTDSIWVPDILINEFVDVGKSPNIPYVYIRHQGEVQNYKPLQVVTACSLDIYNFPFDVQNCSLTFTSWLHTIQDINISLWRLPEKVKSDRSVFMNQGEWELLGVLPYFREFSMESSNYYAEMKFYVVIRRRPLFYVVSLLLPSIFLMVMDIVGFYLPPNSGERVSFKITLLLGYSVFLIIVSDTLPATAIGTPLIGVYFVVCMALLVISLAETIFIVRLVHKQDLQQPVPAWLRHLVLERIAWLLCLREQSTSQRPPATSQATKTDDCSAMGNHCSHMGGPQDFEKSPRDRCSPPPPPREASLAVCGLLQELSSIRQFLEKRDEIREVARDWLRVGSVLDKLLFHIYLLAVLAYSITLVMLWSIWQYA

[15] = Plasma concentration in NMRI mouse at 0.1 mg/kg, ip measured after 1 hr by HPLC-MS/MS analysis; format: ADME, organism-based
[16] = Plasma concentration in Wistar rat at 1 mg/kg, ip measured after 35 mins by HPLC-MS/MS analysis; format: ADME, organism-based
[17] = Ratio of drug level in NMRI mouse brain to plasma at 0.3 mg/kg, ip measured after 1 hr by HPLC-MS/MS analysis; format: ADME, organism-based; settings: read-out: BPR
[18] = Drug uptake in Wistar rat brain at 3 mg/kg, ip measured after 35 mins by HPLC-MS/MS analysis; format: ADME, organism-based; settings: read-out: Ct
Rattus norvegicus = assay: Cognitive enhancing effect in Hannover Wistar rat assessed as increase in novel object recognition index at 1 to 10 mg/kg, po administered 30 mins prior to recognition trail by novel object recognition test; format: functional, organism-based; settings: dose 1-10 mg/kg
[19] = Plasma concentration in NMRI mouse at 0.3 mg/kg, ip measured after 1 hr by HPLC-MS/MS analysis; format: ADME, organism-based
[20] = Drug uptake in NMRI mouse brain at 0.3 mg/kg, ip measured after 1 hr by HPLC-MS/MS analysis; format: ADME, organism-based; settings: read-out: Ct
[21] = Mutagenicity in Salmonella typhimurium TA100 in presence of rat liver S9 fraction by AMES test; format: toxicity, subcellular; settings: salmonella enterica subsp. enterica serovar typhimurium
[22] = Metabolic stability in NMRI mouse liver microsomes assessed as intrinsic clearance at 1 uM measured per mg protein upto 40 mins; format: ADME, Microsome; settings: read-out: CLH
[23] = Metabolic stability in human liver microsomes assessed as intrinsic clearance at 1 uM measured per mg protein upto 40 mins; format: ADME, Microsome; settings: read-out: CLH
[24] = Plasma concentration in NMRI mouse at 3 mg/kg, ip measured after 1 hr by HPLC-MS/MS analysis; format: ADME, organism-based
[25] = molecular target: GABA-A receptor; anion channel (Rattus norvegicus) (UniProt O09028+P15431+P18506+P18508+P19969+P20236+P23574+P23576+P28471+P28473+P30191+P62813+P63079+P63138+Q91ZM7+Q9ES14); assay: Displacement of [3H]muscimol from GABAA receptor in Wistar rat brain without cerebellum at 10 uM by displacement binding assay; format: tissue-based
[26] = molecular target: Glutamate NMDA receptor (Rattus norvegicus) (UniProt P35439+Q00959+Q00960+Q00961+Q62645+Q8VHN2+Q9R1M7); assay: Displacement of [3H]CGP39653 from NMDA receptor in Wistar rat cerebral cortex at 10 uM by displacement binding assay; format: tissue-based
[27] = Plasma concentration in NMRI mouse at 1 mg/kg, ip measured after 1 hr by HPLC-MS/MS analysis; format: ADME, organism-based
[28] = molecular target: GABA-A receptor; alpha-1/beta-3/gamma-2 (Homo sapiens) (UniProt P14867+P18507+P28472); assay: Inhibition of human alpha1beta3gamma2 GABAA receptor expressed in HEK293 cells assessed as inhibition of GABA induced channel current response at 1 to 10 uM measured after 7 to 10 mins at -80 mV holding potential by whole-cell patch clamp assay; format: cell-based; settings: dose 1-10 µM, time 7-10 min
[29] = Mutagenicity in Salmonella typhimurium TA100 in absence of rat liver S9 fraction by AMES test; format: toxicity; settings: salmonella enterica subsp. enterica serovar typhimurium
[30] = Mutagenicity in Salmonella typhimurium TA98 in presence of rat liver S9 fraction by AMES test; format: toxicity, subcellular; settings: salmonella enterica subsp. enterica serovar typhimurium

Chain of Voltage-gated inwardly rectifying potassium channel KCNH2 (Q12809 whole entry): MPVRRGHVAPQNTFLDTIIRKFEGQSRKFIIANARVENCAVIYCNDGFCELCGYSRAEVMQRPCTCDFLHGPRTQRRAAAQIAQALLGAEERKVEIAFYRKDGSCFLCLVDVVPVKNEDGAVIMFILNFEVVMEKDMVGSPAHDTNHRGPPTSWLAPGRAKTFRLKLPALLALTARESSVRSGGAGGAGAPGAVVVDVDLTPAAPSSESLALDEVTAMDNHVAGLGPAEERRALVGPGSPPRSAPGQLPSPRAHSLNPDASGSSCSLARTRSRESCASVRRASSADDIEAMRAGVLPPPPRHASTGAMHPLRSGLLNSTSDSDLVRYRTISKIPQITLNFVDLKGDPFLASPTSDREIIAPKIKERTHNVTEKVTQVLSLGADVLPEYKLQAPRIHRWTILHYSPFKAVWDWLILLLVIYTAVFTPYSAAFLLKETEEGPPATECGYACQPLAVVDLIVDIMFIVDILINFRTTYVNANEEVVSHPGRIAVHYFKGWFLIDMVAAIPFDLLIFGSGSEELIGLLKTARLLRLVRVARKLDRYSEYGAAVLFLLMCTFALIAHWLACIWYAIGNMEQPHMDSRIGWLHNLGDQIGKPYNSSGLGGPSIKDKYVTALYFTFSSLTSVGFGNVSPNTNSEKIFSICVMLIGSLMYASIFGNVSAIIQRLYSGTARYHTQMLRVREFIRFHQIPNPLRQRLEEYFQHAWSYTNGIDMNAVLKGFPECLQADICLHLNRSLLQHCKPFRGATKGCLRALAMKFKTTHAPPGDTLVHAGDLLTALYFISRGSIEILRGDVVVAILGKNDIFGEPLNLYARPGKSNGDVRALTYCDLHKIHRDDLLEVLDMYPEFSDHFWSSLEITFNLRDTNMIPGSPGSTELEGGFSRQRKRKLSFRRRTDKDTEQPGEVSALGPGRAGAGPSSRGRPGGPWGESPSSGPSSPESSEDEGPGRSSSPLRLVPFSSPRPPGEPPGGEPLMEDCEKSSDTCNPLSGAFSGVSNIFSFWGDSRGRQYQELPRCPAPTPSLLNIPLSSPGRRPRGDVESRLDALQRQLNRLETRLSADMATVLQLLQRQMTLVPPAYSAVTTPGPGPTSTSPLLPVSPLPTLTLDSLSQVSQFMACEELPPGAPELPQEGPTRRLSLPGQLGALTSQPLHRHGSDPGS
Chain of 5-hydroxytryptamine receptor 2B (Homo sapiens) (P41595 whole entry): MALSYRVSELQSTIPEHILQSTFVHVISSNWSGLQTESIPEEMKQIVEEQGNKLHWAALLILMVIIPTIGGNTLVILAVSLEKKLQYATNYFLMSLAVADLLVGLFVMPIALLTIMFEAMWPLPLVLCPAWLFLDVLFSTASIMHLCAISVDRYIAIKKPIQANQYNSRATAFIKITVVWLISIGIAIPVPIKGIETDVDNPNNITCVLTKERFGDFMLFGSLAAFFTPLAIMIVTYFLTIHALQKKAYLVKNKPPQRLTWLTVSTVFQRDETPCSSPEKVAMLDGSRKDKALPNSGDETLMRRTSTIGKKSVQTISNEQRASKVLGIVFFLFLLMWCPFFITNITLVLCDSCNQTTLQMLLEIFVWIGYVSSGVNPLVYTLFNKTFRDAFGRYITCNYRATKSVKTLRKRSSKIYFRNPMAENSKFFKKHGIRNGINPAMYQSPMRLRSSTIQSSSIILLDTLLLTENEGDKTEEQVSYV
Chain of Sigma non-opioid intracellular receptor 1 (Homo sapiens) (Q99720 whole entry): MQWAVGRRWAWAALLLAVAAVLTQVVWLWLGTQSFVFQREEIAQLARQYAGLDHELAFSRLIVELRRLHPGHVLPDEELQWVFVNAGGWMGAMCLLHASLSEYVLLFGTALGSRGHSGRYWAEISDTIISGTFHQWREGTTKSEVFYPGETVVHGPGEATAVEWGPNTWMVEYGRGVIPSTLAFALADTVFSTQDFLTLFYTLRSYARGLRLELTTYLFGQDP

In the case of `Cc1ccc(CN2CCN(C(=O)C(=O)Nc3ccc4c(ccn4C)c3)CC2)cc1`, the Kp at 35 min [1] is reported as 3.8, the IC50 [2] is reported as 7.5 µM and the efflux ratio at 2 h, 10 µM [3] is reported as 0.7. The inhibition [4] was 98%, the inhibition [5] was 55% and the Activity [6] was “Non-Toxic”. For the same molecule, the Activity [7] was under 7%, the Activity [8] was “inactive” and the solubility kinetic [9] was 41.6 µM (≈ 16.2 µg/mL). The Activity [10] was “Non-Toxic”, the concentration at 1 h [11] was 3.1 nM and the Papp A→B at 2 h, 10 µM [12] was 30.7 ×10⁻⁶ cm/s. For the same molecule, the Activity [13] was “Non-Toxic”, the inhibition [14] was under 15% and the concentration at 1 h [15] was 2.1 nM. The concentration at 35 min [16] was 28 nM, the Kp at 1 h [17] was 1.22 and the concentration at 35 min [18] was 207 nM. For the same molecule, the Activity (Rattus norvegicus) was “inactive”, the concentration at 1 h [19] was 4.3 nM and the concentration at 1 h [20] was 5.5 nM. For the same molecule, the Activity [21] was “Non-Toxic”, the microsomal CLint at 1 µM [22] was 55 µL/min/mg and the microsomal CLint at 1 µM [23] was 15 µL/min/mg. It also gave a concentration at 1 h [24] of 37 nM, an inhibition [25] of under 15% and an inhibition [26] of under 15%. For the same molecule, the concentration at 1 h [27] was 21 nM, the inhibition [28] was under 7% and the Activity [29] was “Non-Toxic”. The Activity [30] was “Non-Toxic”.
